Results taken from patent publication US7491794B2, “Macrocyclic compounds as inhibitors of viral replication” (Intermune, Inc., priority 2003, dated 2009).
Read-outs that look alike come from different tables or passages of the source.

Key:
[1] = system: HCV sub-genomic replicon, GS4.3; test: Quantitation by ELISA of NPTII in the HCV sub-genomic replicon, GS4.3, Section C; assay type: cell-based; conditions: Hepatitis C virus
Source text: Quantitation by ELISA of the selectable marker protein, Neomycin phosphotransferase II (NPTII) in the HCV Sub-Genomic Replicon, GS4.3
The HCV sub-genomic replicon (1377/NS3-3′, accession No. AJ242652), stably maintained in HuH-7 hepatoma cells, was created by Lohmann et al. Science 285: 110-113 (1999). The replicon-containing cell culture, designated GS4.3, was obtained from Dr. Christoph Seeger of the Institute for Cancer Research, Fox Chase Cancer Center, Philadelphia, Pa.
GS4.3 cells were maintained at 37° C., 5% CO2, in DMEM (Gibco 11965-092) supplemented with L-glutamine 200 mM (100×) (Gibco25030-081), non-essential amino acids (NEAA)(Biowhittaker 13-114E), heat-inactivated (HI) Fetal Bovine Serum(FBS)(Hyclone SH3007.03) and 750 μg/ml geneticin (G418)(Gibco 10131-035). Cells were sub-divided 1:3 or 4 every 2-3 days.
24 h prior to the assay, GS4.3 cells were collected, counted, and plated in 96-well plates (Costar 3585) at 7500 cells/well in 100 μl standard maintenance medium (above) and incubated in the conditions above. To initiate the assay, culture medium was removed, cells were washed once with PBS (Gibco 10010-023) and 90 μl Assay Medium (DMEM, L-glutamine, NEAA, 10% HI FBS, no G418) was added. Inhibitors were made as a 10× stock in Assay Medium, (3-fold dilutions from 10 μM to […] final concentration, final DMSO concentration 1%), 10 μl were added to duplicate wells, plates were rocked to mix, and incubated as above for 72 h.
An NPTII Elisa kit was obtained from AGDIA, Inc. (Compound direct ELISA test system for Neomycin Phosphotransferase II, PSP 73000/4800). Manufacturer's instructions were followed, with some modifications. 10×PEB-1 lysis buffer was made up to include 500 μM PMSF (Sigma P7626, 50 mM stock in isopropanol). After 72 h incubation, cells were washed once with PBS and 150 μl PEB-1 with PMSF was added per well. Plates were agitated vigorously for 15 minutes, room temperature, then frozen at −70° C. Plates were thawed, lysates were mixed thoroughly, and 100 μl were applied to an NPTII Elisa plate. A standard curve was made. Lysate from DMSO-treated control cells was pooled, serially diluted with PEB-1 with PMSF, and applied to duplicate wells of the ELISA plate, in a range of initial lysate amount of 150u1-2.5 ul. In addition, 100 μl buffer alone was applied in duplicate as a blank. Plates were sealed and gently agitated at room temperature for 2 h. Following capture incubation, the plates were washed 5×300 μl with PBS-T (0.5% Tween-20, PBS-T was supplied in the ELISA kit). For detection, a 1× dilution of enzyme conjugate diluent MRS-2 (5×) was made in PBS-T, into which 1:100 dilutions of enzyme conjugates A and B were added, as per instructions. Plates were resealed, and incubated with agitation, covered, room temperature, for 2 h. The washing was then repeated and 100 μl of room temperature TMB substrate was added. After approximately 30 minutes incubation (room temperature, agitation, covered), the reaction was stopped with 50 μl 3M sulfuric acid. Plates were read at 450 nm on a Molecular Devices Versamax plate reader.
Inhibitor effect was expressed as a percentage of DMSO-treated control signal, and inhibition curves were calculated using a 4-parameter equation: y=A+((B−A)/(1+((C/x)^D))), where C is half-maximal activity or EC50.

NS3-NS4 protease = molecular target: T1, NS3-NS4 protease (Hepatitis C virus genotype 1a, UniProt P27958); test: NS3-NS4 protease assay / NS3 inhibition assay, Section C; assay type: biochemical
T1 construct: Recombinant E. coli or Baculovirus full-length NS3 was diluted to 3.33 μM with assay buffer; made in house; host or cells: E. coli or baculovirus (BV) system
T1 sequence (P27958 1027-1657): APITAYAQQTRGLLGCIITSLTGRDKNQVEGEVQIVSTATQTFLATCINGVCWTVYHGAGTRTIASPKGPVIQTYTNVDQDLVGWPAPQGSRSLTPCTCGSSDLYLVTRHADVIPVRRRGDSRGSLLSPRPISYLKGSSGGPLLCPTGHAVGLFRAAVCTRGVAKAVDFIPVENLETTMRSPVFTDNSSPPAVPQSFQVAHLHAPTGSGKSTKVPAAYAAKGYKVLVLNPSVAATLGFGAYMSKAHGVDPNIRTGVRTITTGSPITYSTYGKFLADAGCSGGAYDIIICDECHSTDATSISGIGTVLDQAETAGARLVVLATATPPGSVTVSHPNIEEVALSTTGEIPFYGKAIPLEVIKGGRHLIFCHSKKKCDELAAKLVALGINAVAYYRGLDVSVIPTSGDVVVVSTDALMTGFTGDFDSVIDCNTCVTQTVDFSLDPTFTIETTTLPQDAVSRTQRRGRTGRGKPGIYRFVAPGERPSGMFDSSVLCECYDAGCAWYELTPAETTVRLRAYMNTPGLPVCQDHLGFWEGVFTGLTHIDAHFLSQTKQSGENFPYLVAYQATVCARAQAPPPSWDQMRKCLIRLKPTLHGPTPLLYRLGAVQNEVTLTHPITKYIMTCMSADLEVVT
Experimental: NS3 complex formation with NS4A-2.
Recombinant E. coli or Baculovirus full-length NS3 was diluted to 3.33 μM with assay buffer and transfered material to an eppendorf tube and place in water bath in 4° C. refrigerator. The appropriate amount of NS4A-2 to 8.3 mM in assay buffer was added to equal the volume of NS3 in step 2.1.1 (conversion factor −3.8 mg/272 μL assay buffer). The material was transferred to an eppendorf tube and place in water bath in 4° C. refrigerator.
After equilibration to 4° C., equal volumes of NS3 and NS4A-2 solutions were combined in an eppendorf tube, mix gently with a manual pipettor, and incubate mixture for 15 minutes in the 4° C. water bath. Final concentrations in the mixture are […] NS3, 4.15 mM NS4A-2 (2485-fold molar excess NS4A-2).
After 15 minutes at 4° C., the NS3/NS4A-2 eppendorf tube was removed and place it in a room temperature water bath for 10 minutes. NS3/NS4A-2 was alliquoted at appropriate volumes and store at −80° C. (E. coli NS3 run at 2 nM in assay, aliquot at 25 μL. BV NS3 run at 3 nM in assay, aliquot at 30 μL).
Step 2.2.5. Sample compounds were dissolved to 10 mM in DMSO then diluted to 2.5 mM (1:4) in DMSO.
Step 2.2.6. The E. coli. NS3/NS4A-2 was diluted to 4 nM NS3 (1:417.5 of […] stock−18 μL 1.67 μM stock+7497 μL assay buffer). The BV NS3/NS4A-2 was diluted to 6 nM NS3 (1:278.3 of 1.67 μM stock−24 μL 1.67 μM stock+6655 μL assay buffer).
Step 2.2.7. Using the manual multichannel pipettor, and being careful not to introduce bubbles into the plate, 50 μL assay buffer were added to wells A01-H01 of a black Costar 96-well polypropylene storage plate.
Step 2.2.8. Using the manual multichannel pipettor, and being careful not to introduce bubbles into the plate, 50 μL of diluted NS3/NS4A-2 from step 2.2.6 were added to wells A02-H12 of plate in step 2.2.7.
Step 2.2.9. Using the manual multichannel pipettor, and being careful not to introduce bubbles into the plate, 25 μL of the wells in drug dilution plate in step 2.2.5 were transferred to corresponding wells in assay plate in step 2.2.8. The tips on multichannel pipettor were changed for each row of compounds transferred.
Step 2.2.10. Using the manual multichannel pipettor, and being careful not to introduce bubbles into the plate, the contents of the wells from the assay plate in step 2.2.9 were mixed by aspirating and dispensing 35 μL of the 75 μL in each well five times. The tips on the multichannel pipettor were changed for each row of wells mixed.
Step 2.2.11. The plate was covered with a polystyrene plate lid, and the plate from step 2.2.10 containing NS3 protease and sample compounds was pre-incubated 10 minutes at room temperature.
While the plate from step 2.2.11 was pre-incubating, the RETS1 substrate was diluted in a 15 mL polypropylene centrifuge tube. The RETS1 substrate was diluted to 8 μM (1:80.75 of 646 μM stock−65 μL 646 μM stock+5184 μL assay buffer).
After the plate in step 2.2.11 was done pre-incubating, and using the manual multichannel, 25 μL of substrate were added to all wells on the plate. The contents of the wells of plate were quickly mixed, as in step 2.2.10, but mixing 65 μL of the 100 μL in the wells.
The plate was read in kinetic mode on the Molecular Devices SpectraMax Gemini XS plate reader. Reader settings: Read time: 30 minutes, Interval: 36 seconds, Reads: 51, Excitation λ: 335 nm, Emission λ: 495 nm, cutoff: 475 nm, Automix: off, Calibrate: once, PMT: high, Reads/well: 6, Vmax pts: 21 or 28/51 depending on length of linearity of reaction.
IC50s were determined using a four parameter curve fit equation, and converted to Ki's using the following Km's:
where Ki=IC50/(1+[S]/Km))

[2] = GS4.3 cells, 72 h incubation, read-out: EC50

SMILES | EC50 [1, 2] [nM] | IC50 (NS3-NS4 protease; read-out: NS3-NS4 IC50) [nM] | EC50 ([1]; 72 h) [nM] | IC50 (NS3-NS4 protease) [nM]
CC(C)(C)OC(=O)N[C@H]1CCCCC/C=C\[C@@H]2C[C@@]2(C(=O)NS(=O)(=O)NC2CC2)NC(=O)[C@@H]2C[C@@H](OC(=O)N3CCc4ccccc4C3CN3CCCCC3)CN2C1=O (some centres unmarked) [Compound 108] | < 100 | < 1000 | – | –
CC(C)(C)OC(=O)N[C@H]1CCCCC/C=C\[C@@H]2C[C@@]2(C(=O)NS(=O)(=O)N2CCCC2)NC(=O)[C@@H]2C[C@@H](OC(=O)N3CCc4ccccc4C3CN3CCCCC3)CN2C1=O (stereo partly drawn) [Compound 109, (1S,4R,6S,14S,18R)-1-Piperidin-1-ylmethyl-3,4-dihydro-1H-isoquinoline-2-carboxylic acid 14-tert-butoxycarbonylamino-2,15-dioxo-4-(pyrrolidino-sulfonylaminocarbonyl)-3,16-diaza-tricyclo[14.3.0.0^4,6]nonadec-7-en-18-yl ester] | < 1000 | < 100 | – | –
CN(C)S(=O)(=O)NC(=O)[C@@]12C[C@H]1/C=C\CCCCC[C@H](NC(=O)OC(C)(C)C)C(=O)N1C[C@H](OC(=O)N3Cc4ccc(Cl)cc4C3)C[C@H]1C(=O)N2 [Compound 113, (1S,4R,6S,14S,18R)-5-Chloro-1,3-Dihydro-isoindole-2-carboxylic acid 14-tert-butoxycarbonylamino-4-(N,N-dimethylsulfonyl-aminocarbonyl)-2,15-dioxo-3,16-diaza-tricyclo[14.3.0.0^4,6]nonadec-7-en-18-yl ester] | < 100 | < 100 | – | –
CC(C)(C)OC(=O)N[C@H]1CCCCC/C=C\[C@@H]2C[C@@]2(C(=O)NS(=O)(=O)NC2CC2)NC(=O)[C@@H]2C[C@@H](OC(=O)N3Cc4ccc(Cl)cc4C3)CN2C1=O [Compound 114] | < 100 | < 100 | – | –
CC(C)(C)OC(=O)N[C@H]1CCCCC/C=C\[C@@H]2C[C@@]2(C(=O)NS(=O)(=O)N2CCCC2)NC(=O)[C@@H]2C[C@@H](OC(=O)N3Cc4ccc(Cl)cc4C3)CN2C1=O [Compound 115, (1S,4R,6S,14S,18R)-5-Chloro-1,3-Dihydro-isoindole-2-carboxylic acid 14-tert-butoxycarbonylamino-4-(pyrrolidino-sulfonyl-aminocarbonyl)-2,15-dioxo-3,16-diaza-tricyclo[14.3.0.0^4,6]nonadec-7-en-18-yl ester] | < 100 | < 100 | – | –
CC(C)(C)OC(=O)N[C@H]1CCCCC/C=C\[C@@H]2C[C@@]2(C(=O)NS(=O)(=O)N2CCOCC2)NC(=O)[C@@H]2C[C@@H](OC(=O)N3Cc4ccc(Cl)cc4C3)CN2C1=O [Compound 116, (1S,4R,6S,14S,18R)-5-Chloro-1,3-Dihydro-isoindole-2-carboxylic acid 14-tert-butoxycarbonylamino-4-(morpholino-sulfonyl-aminocarbonyl)-2,15-dioxo-3,16-diaza-tricyclo[14.3.0.0^4,6]nonadec-7-en-18-yl ester] | < 1000 | < 100 | – | –
CC(C)(C)OC(=O)N[C@H]1CCCCC/C=C\[C@@H]2C[C@@]2(C(=O)NS(=O)(=O)N2CCC2)NC(=O)[C@@H]2C[C@@H](OC(=O)N3Cc4ccccc4C3)CN2C1=O [Compound 117, (1S,4R,6S,14S,18R)-1,3-Dihydro-isoindole-2-carboxylic acid 14-tert-butoxycarbonylamino-4-(azetidino-sulfonyl-aminocarbonyl)-2,15-dioxo-3,16-diaza-tricyclo[14.3.0.0^4,6]nonadec-7-en-18-yl ester] | < 100 | < 100 | – | –
CN1CCN(S(=O)(=O)NC(=O)[C@@]23C[C@H]2/C=C\CCCCC[C@H](NC(=O)OC(C)(C)C)C(=O)N2C[C@H](OC(=O)N4Cc5ccccc5C4)C[C@H]2C(=O)N3)CC1 [Compound 118, (1S,4R,6S,14S,18R)-1,3-Dihydro-isoindole-2-carboxylic acid 14-tert-butoxycarbonylamino-4-(4-methylpiperazine-1-sulfonyl-aminocarbonyl)-2,15-dioxo-3,16-diaza-tricyclo[14.3.0.0^4,6]nonadec-7-en-18-yl ester] | < 100 | < 100 | – | –
CC(C)(C)OC(=O)N[C@H]1CCCCC/C=C\[C@@H]2C[C@@]2(C(=O)NS(=O)(=O)N2CCN(C(=O)OCC[Si](C)(C)C)CC2)NC(=O)[C@@H]2C[C@@H](OC(=O)N3Cc4ccccc4C3)CN2C1=O [Compound 119, (1S,4R,6S,14S,18R)-1,3-Dihydro-isoindole-2-carboxylic acid 14-tert-butoxycarbonylamino-4-(4-(2-trimethylsilylethoxycarbonyl)piperazine-1-sulfonyl-aminocarbonyl)-2,15-dioxo-3,16-diaza-tricyclo[14.3.0.0^4,6]nonadec-7-en-18-yl ester] | – | – | < 100 | < 100
CC(C)(C)OC(=O)N[C@H]1CCCCC/C=C\[C@@H]2C[C@@]2(C(=O)NS(=O)(=O)NC2CC2)NC(=O)C2C[C@@H](OC(=O)N3Cc4cccc(F)c4C3)CN2C1=O (some centres unmarked) [Compound 121] | < 100 | < 100 | – | –
